Source: ChEMBL document CHEMBL4507317, “Data for DCP probe BAY-899” (2021)

Tests used:
[1] = test system: Tyrosine-protein kinase ABL1 (Homo sapiens), P00519 [F317L]; settings: Compound concentration 1000.0 nM
[2] = target: NUAK family SNF1-like kinase 1 (Homo sapiens) (UniProt O60285); settings: Compound concentration 1000.0 nM
[3] = target: Mitogen-activated protein kinase kinase kinase 5 (Homo sapiens) (UniProt Q99683); settings: Compound concentration 1000.0 nM
[4] = target: Aurora kinase C (Homo sapiens) (UniProt Q9UQB9); settings: Compound concentration 1000.0 nM
[5] = test system: Serine/threonine-protein kinase B-raf (Homo sapiens), P15056 [V600E]; settings: Compound concentration 1000.0 nM
[6] = target: Protein-tyrosine kinase 6 (Homo sapiens) (UniProt Q13882); settings: Compound concentration 1000.0 nM
[7] = target: Calcium/calmodulin-dependent protein kinase type 1D (Homo sapiens) (UniProt Q8IU85); settings: Compound concentration 1000.0 nM
[8] = target: Calcium/calmodulin-dependent protein kinase kinase 1 (Homo sapiens) (UniProt Q8N5S9); settings: Compound concentration 1000.0 nM
[9] = target: Dual specificity protein kinase CLK4 (Homo sapiens) (UniProt Q9HAZ1); settings: Compound concentration 1000.0 nM
[10] = test system: Epidermal growth factor receptor (Homo sapiens), P00533 [L861Q]; settings: Compound concentration 1000.0 nM
[11] = target: Eukaryotic translation initiation factor 2-alpha kinase 1 (Homo sapiens) (UniProt Q9BQI3); settings: Compound concentration 1000.0 nM
[12] = target: Serine/threonine-protein kinase/endoribonuclease IRE1 (Homo sapiens) (UniProt O75460); settings: Compound concentration 1000.0 nM
[13] = target: Hormonally up-regulated neu tumor-associated kinase (Homo sapiens) (UniProt P57058); settings: Compound concentration 1000.0 nM
[14] = target: Inhibitor of nuclear factor kappa-B kinase subunit beta (Homo sapiens) (UniProt O14920); settings: Compound concentration 1000.0 nM
[15] = test system: Mast/stem cell growth factor receptor Kit (Homo sapiens), P10721 [A829P]; settings: Compound concentration 1000.0 nM
[16] = target: Mitogen-activated protein kinase kinase kinase kinase 3 (Homo sapiens) (UniProt Q8IVH8); settings: Compound concentration 1000.0 nM
[17] = target: Dual specificity mitogen-activated protein kinase kinase 6 (Homo sapiens) (UniProt P52564); settings: Compound concentration 1000.0 nM
[18] = target: Serine/threonine-protein kinase 4 (Homo sapiens) (UniProt Q13043); settings: Compound concentration 1000.0 nM
[19] = target: Serine/threonine-protein kinase 3 (Homo sapiens) (UniProt Q13188); settings: Compound concentration 1000.0 nM
[20] = target: Serine/threonine-protein kinase 24 (Homo sapiens) (UniProt Q9Y6E0); settings: Compound concentration 1000.0 nM
[21] = target: Myosin light chain kinase, smooth muscle (Homo sapiens) (UniProt Q15746); settings: Compound concentration 1000.0 nM
[22] = target: Serine/threonine-protein kinase Nek5 (Homo sapiens) (UniProt Q6P3R8); settings: Compound concentration 1000.0 nM
[23] = target: Mitogen-activated protein kinase 11 (Homo sapiens) (UniProt Q15759); settings: Compound concentration 1000.0 nM
[24] = target: Phosphatidylinositol 4,5-bisphosphate 3-kinase catalytic subunit gamma isoform (Homo sapiens) (UniProt P48736); settings: Compound concentration 1000.0 nM
[25] = target: Serine/threonine-protein kinase N2 (Homo sapiens) (UniProt Q16513); settings: Compound concentration 1000.0 nM
[26] = target: Protein kinase C theta type (Homo sapiens) (UniProt Q04759); settings: Compound concentration 1000.0 nM
[27] = target: Protein-tyrosine kinase 2-beta (Homo sapiens) (UniProt Q14289); settings: Compound concentration 1000.0 nM
[28] = target: RAF proto-oncogene serine/threonine-protein kinase (Homo sapiens) (UniProt P04049); settings: Compound concentration 1000.0 nM
[29] = target: Dual serine/threonine and tyrosine protein kinase (Homo sapiens) (UniProt Q6XUX3); settings: Compound concentration 1000.0 nM
[30] = target: Ribosomal protein S6 kinase beta-1 (Homo sapiens) (UniProt P23443); settings: Compound concentration 1000.0 nM
[31] = target: Serine/threonine-protein kinase Sgk2 (Homo sapiens) (UniProt Q9HBY8); settings: Compound concentration 1000.0 nM
[32] = target: STE20-like serine/threonine-protein kinase (Homo sapiens) (UniProt Q9H2G2); settings: Compound concentration 1000.0 nM
[33] = target: NUAK family SNF1-like kinase 2 (Homo sapiens) (UniProt Q9H093); settings: Compound concentration 1000.0 nM
[34] = target: Tyrosine-protein kinase Srms (Homo sapiens) (UniProt Q9H3Y6); settings: Compound concentration 1000.0 nM
[35] = target: Serine/threonine-protein kinase 35 (Homo sapiens) (UniProt Q8TDR2); settings: Compound concentration 1000.0 nM
[36] = target: Tyrosine-protein kinase Tec (Homo sapiens) (UniProt P42680); settings: Compound concentration 1000.0 nM
[37] = target: Serine/threonine-protein kinase 25 (Homo sapiens) (UniProt O00506); settings: Compound concentration 1000.0 nM
[38] = target: 5-hydroxytryptamine receptor 6 (Homo sapiens) (UniProt P50406); settings: Compound concentration 10.0 uM
[39] = target: T1, Alpha-1A adrenergic receptor (Homo sapiens) (UniProt P35348); settings: Compound concentration 10.0 uM
T1 sequence (whole entry): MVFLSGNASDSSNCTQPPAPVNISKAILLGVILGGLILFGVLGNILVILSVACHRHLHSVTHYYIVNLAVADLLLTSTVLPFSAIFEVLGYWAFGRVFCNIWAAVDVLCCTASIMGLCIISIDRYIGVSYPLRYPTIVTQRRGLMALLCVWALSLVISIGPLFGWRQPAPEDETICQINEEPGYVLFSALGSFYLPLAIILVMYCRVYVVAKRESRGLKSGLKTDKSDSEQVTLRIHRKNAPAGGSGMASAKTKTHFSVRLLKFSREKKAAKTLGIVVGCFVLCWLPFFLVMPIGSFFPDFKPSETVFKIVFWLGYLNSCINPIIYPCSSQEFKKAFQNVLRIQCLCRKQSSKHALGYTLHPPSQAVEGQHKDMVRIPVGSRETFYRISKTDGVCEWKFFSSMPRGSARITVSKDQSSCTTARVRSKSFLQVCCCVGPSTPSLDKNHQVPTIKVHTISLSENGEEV

Dual specificity protein kinase CLK4 (Homo sapiens), sequence (Q9HAZ1 whole entry, looked up): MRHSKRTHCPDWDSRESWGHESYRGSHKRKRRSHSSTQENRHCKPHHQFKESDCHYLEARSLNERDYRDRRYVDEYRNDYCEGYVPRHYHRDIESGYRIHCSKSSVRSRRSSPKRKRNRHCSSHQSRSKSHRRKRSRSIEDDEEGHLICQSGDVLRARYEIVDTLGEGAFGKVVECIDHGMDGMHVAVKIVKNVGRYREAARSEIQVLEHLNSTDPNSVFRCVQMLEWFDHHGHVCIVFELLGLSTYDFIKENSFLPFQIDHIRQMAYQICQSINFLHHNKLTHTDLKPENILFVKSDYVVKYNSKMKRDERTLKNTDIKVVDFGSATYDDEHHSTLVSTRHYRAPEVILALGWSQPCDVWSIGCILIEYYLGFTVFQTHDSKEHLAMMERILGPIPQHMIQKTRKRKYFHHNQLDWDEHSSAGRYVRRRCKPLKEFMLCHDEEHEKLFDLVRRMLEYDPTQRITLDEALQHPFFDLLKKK
Phosphatidylinositol 4,5-bisphosphate 3-kinase catalytic subunit gamma isoform (Homo sapiens), sequence (P48736 whole entry, looked up, canonical isoform): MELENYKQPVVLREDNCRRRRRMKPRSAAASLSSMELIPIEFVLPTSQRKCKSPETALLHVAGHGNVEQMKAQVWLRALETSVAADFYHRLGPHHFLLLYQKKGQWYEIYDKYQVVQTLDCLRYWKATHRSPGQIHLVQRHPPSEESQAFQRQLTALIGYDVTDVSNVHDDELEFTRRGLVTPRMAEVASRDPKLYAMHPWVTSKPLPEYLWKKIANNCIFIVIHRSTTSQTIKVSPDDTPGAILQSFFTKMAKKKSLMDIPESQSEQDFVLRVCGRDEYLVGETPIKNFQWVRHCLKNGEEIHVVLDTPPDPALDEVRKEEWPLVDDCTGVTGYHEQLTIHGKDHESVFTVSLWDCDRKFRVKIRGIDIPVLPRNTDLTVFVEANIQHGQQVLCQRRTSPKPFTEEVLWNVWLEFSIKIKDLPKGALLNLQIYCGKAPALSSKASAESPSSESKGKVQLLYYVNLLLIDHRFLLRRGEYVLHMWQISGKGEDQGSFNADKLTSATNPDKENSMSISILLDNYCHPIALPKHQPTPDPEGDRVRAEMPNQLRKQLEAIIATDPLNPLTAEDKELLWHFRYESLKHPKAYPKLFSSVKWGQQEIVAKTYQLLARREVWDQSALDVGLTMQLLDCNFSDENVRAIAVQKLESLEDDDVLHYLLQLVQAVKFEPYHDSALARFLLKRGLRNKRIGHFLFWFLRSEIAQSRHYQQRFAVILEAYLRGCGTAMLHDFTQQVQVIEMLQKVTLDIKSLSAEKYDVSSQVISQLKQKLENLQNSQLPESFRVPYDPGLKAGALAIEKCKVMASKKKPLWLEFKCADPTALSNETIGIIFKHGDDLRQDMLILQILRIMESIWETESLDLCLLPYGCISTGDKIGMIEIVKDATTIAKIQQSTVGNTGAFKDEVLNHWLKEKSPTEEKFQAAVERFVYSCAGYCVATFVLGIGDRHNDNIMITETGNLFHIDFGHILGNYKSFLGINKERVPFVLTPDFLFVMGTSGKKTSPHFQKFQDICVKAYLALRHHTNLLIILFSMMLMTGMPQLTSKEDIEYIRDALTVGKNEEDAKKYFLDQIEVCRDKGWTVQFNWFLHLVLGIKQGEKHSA
Serine/threonine-protein kinase 24 (Homo sapiens), sequence (Q9Y6E0 whole entry, looked up): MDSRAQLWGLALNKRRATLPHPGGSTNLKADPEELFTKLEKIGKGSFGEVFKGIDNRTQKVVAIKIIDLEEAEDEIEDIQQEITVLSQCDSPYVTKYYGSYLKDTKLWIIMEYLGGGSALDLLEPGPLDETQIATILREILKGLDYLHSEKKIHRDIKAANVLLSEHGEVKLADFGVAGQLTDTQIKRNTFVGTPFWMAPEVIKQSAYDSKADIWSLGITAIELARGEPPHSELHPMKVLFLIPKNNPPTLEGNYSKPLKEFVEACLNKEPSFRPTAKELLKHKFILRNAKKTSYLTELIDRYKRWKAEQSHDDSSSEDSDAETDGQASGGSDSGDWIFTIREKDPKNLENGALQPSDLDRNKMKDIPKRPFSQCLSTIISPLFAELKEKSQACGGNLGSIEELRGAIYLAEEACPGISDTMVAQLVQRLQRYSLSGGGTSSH
Mitogen-activated protein kinase kinase kinase kinase 3 (Homo sapiens), sequence (Q8IVH8 whole entry): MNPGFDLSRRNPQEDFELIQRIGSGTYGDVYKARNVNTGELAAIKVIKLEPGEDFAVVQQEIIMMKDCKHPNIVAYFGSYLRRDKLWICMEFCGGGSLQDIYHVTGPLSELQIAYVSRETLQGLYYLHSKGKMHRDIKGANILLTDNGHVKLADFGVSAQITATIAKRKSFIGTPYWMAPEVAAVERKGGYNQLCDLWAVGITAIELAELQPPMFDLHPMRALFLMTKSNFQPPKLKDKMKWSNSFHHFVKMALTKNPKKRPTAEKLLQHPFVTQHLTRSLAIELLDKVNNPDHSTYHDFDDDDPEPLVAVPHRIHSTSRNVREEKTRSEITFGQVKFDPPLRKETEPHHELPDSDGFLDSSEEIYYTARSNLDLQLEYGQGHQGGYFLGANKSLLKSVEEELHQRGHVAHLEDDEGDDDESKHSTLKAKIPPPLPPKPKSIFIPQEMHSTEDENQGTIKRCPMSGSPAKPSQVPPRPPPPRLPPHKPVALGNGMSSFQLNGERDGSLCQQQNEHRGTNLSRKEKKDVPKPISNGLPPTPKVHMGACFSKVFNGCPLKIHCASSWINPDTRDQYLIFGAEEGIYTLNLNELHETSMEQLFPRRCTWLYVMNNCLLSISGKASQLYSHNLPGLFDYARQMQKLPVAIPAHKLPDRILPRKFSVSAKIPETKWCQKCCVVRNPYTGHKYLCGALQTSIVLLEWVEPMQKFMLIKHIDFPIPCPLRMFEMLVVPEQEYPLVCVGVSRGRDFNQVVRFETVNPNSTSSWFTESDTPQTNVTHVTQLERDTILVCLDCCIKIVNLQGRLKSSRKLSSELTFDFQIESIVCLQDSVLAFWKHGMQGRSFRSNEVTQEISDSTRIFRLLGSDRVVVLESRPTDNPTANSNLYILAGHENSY
Mast/stem cell growth factor receptor Kit (Homo sapiens), P10721 [A829P], sequence (P10721 whole entry A829P): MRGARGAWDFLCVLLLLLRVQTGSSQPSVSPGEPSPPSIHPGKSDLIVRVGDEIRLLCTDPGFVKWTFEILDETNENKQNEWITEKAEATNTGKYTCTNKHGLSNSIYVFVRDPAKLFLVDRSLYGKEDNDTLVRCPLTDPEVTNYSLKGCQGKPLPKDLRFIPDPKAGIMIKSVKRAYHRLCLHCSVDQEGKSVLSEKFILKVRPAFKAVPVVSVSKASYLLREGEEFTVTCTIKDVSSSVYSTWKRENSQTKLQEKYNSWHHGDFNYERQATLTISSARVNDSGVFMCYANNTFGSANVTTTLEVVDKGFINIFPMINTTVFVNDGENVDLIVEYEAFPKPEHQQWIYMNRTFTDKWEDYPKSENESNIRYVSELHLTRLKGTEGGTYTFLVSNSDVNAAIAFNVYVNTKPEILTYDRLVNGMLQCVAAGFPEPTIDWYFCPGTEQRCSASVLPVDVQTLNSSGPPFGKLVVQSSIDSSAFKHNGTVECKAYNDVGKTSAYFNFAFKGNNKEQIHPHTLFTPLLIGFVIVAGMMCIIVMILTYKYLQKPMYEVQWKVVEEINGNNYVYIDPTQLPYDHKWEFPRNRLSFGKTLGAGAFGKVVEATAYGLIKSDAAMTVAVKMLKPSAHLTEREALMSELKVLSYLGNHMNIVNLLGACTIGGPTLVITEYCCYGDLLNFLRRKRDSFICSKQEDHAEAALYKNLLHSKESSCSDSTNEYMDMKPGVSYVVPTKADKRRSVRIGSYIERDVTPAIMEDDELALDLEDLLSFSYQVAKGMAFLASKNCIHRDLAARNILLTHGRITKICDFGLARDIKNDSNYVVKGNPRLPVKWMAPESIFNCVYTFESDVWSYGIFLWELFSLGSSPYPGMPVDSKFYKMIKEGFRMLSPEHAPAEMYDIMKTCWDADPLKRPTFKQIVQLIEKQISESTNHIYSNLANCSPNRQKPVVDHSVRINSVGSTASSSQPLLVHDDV
NUAK family SNF1-like kinase 2 (Homo sapiens), sequence (Q9H093 whole entry): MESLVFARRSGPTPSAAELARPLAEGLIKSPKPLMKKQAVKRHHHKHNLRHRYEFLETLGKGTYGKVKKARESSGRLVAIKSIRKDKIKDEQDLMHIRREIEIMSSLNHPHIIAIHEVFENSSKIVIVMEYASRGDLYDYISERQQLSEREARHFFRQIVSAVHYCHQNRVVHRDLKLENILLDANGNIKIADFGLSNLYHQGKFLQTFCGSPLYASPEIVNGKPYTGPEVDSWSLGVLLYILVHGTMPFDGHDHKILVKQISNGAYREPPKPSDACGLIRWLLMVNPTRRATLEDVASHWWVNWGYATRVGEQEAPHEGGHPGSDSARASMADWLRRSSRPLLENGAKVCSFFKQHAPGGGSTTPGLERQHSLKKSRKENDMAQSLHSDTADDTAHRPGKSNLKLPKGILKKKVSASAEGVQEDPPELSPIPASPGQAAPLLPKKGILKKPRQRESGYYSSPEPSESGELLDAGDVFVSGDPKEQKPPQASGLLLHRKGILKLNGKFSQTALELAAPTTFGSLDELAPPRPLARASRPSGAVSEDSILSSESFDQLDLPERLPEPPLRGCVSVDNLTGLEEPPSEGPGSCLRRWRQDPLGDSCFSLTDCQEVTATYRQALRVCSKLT
Mitogen-activated protein kinase 11 (Homo sapiens), sequence (Q15759 whole entry, canonical isoform): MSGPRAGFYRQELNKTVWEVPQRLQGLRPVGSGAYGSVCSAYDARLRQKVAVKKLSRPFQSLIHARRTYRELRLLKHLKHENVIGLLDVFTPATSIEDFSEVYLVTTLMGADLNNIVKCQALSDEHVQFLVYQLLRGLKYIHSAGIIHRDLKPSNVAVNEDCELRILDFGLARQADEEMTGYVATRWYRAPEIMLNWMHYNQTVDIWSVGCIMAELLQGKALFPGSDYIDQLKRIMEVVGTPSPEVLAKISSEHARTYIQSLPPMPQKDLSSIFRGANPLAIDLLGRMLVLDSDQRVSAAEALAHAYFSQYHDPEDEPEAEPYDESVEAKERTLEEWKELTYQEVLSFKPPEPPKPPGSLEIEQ

O=C(Nc1ccc(Oc2ccc(F)cc2)cc1)N1CCc2ncccc2[C@H]1c1ccc(F)cc1 [BAY-897]
inactive: residual activity [1] 86% | residual activity [2] 92% | residual activity [3] 87% | residual activity [4] 87% | residual activity [5] 93% | residual activity [6] 100% | residual activity [7] 100% | residual activity [8] 99% | residual activity [9] 100% | residual activity [10] 83% | residual activity [11] 100% | residual activity [12] 85% | residual activity [13] 99% | residual activity [14] 100% | residual activity [15] 100% | residual activity [16] 90% | residual activity [17] 100% | residual activity [18] 99% | residual activity [19] 94% | residual activity [20] 93% | residual activity [21] 100% | residual activity [22] 96% | residual activity [23] 100% | residual activity [24] 87% | residual activity [25] 80% | residual activity [26] 95% | residual activity [27] 89% | residual activity [28] 100% | residual activity [29] 100% | residual activity [30] 100% | residual activity [31] 100% | residual activity [32] 100% | residual activity [33] 82% | residual activity [34] 94% | residual activity [35] 80% | residual activity [36] 86% | residual activity [37] 100% | inhibition [38] 16.9% | inhibition [39] 16.2%

O=C(Nc1cnc(Oc2ccc(F)cc2)nc1)N1CCc2ncccc2[C@@H]1c1ccc(F)cc1 [BAY-899]
inactive: residual activity [1] 83% | residual activity [2] 95% | residual activity [3] 84% | residual activity [4] 81% | residual activity [5] 83% | residual activity [6] 98% | residual activity [7] 100% | residual activity [8] 92% | residual activity [9] 100% | residual activity [10] 85% | residual activity [11] 100% | residual activity [12] 85% | residual activity [13] 100% | residual activity [14] 100% | residual activity [15] 100% | residual activity [16] 87% | residual activity [17] 77% | residual activity [18] 100% | residual activity [19] 100% | residual activity [20] 77% | residual activity [21] 100% | residual activity [22] 90% | residual activity [23] 84% | residual activity [24] 85% | residual activity [25] 78% | residual activity [26] 94% | residual activity [27] 100% | residual activity [28] 100% | residual activity [29] 100% | residual activity [30] 89% | residual activity [31] 79% | residual activity [32] 82% | residual activity [33] 100% | residual activity [34] 95% | residual activity [35] 71% | residual activity [36] 89% | residual activity [37] 82% | inhibition [38] -3.59% | inhibition [39] -3.5%
